# From patent publication US12410152B2, “Oxazole and thioazole-type cullin ring ubiquitin ligase compounds and uses thereof” (Proxygen GmbH, priority 2019, dated 2025)
# How the values were obtained:
# CCNK and DDB1 [1] = biological target: T1, CCNK and DDB1 (Homo sapiens, UniProt O75909+Q16531); test: Photo-affinity probe (IC021313.2^PAP) pulldown in intact KBM7 cells; assay type: binding; conditions: UV crosslink, competed by THZ531
# T1 construct: endogenous in cells; host or cells: KBM7 cells (lysate in A24, intact cells in A25)
# T1 sequence (O75909 whole entry): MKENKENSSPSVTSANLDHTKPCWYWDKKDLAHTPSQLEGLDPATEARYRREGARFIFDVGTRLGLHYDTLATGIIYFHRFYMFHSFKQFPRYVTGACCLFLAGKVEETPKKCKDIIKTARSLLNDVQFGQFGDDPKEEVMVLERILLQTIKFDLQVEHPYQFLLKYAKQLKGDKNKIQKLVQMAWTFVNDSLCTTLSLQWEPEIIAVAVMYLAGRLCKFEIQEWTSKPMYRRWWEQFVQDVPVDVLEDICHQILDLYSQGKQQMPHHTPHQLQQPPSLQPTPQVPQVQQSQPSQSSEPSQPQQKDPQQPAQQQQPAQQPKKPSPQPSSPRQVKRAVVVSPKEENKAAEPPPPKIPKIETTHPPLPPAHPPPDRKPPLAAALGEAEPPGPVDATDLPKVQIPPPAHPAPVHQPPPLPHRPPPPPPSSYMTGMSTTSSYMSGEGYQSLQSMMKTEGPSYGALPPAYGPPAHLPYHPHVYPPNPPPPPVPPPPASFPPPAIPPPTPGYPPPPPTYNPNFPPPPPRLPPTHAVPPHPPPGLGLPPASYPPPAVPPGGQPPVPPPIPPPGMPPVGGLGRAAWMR
# T1 sequence (Q16531 2-1140 limits assumed): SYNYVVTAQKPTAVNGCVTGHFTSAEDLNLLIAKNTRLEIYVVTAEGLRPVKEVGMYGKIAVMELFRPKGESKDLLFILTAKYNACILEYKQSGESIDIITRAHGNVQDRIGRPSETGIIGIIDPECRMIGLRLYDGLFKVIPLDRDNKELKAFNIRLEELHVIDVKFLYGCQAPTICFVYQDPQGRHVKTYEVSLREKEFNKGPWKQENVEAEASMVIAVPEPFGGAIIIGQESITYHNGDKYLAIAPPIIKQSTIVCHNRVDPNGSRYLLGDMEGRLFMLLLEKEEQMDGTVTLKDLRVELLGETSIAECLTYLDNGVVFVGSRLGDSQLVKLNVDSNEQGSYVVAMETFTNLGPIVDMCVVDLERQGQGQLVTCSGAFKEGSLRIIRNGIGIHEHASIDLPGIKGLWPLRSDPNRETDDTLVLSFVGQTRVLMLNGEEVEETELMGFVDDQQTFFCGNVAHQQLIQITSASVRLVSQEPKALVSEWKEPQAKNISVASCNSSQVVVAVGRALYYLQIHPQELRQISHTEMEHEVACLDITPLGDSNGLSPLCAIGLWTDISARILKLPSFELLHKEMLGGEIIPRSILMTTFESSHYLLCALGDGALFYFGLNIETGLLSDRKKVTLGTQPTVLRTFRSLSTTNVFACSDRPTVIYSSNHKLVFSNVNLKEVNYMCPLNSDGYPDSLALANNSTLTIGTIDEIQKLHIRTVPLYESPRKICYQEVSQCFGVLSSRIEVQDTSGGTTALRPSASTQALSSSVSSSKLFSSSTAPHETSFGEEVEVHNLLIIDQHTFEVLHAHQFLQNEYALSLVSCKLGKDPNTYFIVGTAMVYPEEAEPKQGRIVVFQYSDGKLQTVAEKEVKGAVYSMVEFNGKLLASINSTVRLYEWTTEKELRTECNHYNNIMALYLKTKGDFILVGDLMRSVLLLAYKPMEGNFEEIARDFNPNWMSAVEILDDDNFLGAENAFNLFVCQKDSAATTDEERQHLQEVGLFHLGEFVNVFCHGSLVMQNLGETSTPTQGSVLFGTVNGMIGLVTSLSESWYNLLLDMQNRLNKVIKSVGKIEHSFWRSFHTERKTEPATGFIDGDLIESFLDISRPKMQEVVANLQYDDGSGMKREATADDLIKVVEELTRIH
# T1 sequence (Q9NYV4 whole entry partner): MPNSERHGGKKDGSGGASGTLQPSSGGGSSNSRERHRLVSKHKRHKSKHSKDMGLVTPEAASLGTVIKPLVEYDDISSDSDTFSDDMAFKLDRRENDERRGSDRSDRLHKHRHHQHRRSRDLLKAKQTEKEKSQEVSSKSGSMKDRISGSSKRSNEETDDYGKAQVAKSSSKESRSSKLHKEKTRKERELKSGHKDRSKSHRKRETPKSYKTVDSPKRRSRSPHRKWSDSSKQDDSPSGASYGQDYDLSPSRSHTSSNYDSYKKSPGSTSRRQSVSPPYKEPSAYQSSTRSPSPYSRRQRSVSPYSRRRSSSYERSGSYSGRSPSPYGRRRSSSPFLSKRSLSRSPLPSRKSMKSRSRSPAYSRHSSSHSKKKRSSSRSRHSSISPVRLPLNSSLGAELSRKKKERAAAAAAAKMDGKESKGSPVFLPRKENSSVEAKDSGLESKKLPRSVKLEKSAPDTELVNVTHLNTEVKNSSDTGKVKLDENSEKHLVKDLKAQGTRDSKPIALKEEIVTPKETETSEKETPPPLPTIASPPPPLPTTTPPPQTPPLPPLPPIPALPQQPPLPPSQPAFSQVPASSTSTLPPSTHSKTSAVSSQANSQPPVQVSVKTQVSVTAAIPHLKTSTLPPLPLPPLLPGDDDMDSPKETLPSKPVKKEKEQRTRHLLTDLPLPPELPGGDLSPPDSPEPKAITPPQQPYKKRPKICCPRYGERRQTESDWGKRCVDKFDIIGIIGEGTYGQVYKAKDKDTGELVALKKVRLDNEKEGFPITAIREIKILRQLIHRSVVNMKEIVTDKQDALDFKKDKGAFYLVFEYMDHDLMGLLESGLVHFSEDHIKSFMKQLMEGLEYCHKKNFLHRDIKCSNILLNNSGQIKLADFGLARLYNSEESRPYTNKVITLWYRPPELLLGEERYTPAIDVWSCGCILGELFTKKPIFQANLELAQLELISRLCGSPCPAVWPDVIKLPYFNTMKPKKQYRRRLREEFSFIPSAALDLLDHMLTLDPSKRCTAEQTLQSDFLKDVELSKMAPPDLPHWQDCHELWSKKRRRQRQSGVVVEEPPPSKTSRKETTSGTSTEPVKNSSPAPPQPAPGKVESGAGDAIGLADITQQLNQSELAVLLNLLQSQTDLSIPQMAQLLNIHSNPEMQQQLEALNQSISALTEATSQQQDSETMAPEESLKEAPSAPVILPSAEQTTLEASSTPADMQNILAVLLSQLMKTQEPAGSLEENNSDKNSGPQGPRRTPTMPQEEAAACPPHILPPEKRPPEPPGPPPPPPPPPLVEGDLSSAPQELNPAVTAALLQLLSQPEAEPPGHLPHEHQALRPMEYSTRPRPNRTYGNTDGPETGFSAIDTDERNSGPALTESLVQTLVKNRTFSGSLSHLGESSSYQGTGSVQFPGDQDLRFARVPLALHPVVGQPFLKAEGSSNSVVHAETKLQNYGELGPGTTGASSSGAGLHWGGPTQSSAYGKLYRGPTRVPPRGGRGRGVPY
# Experimental: Regarding the second strategy, an alternative method for drug-target enrichment that is based on cellular treatment with IC021313.2^PAP, a functionalized analog of IC021313.2 containing a photoactive diazirine moiety and an alkyne handle was performed (FIG. 20 d). Following cellular treatment with IC021313.2^PAP, cells were UV crosslinked, lysed and the alkyne handle in IC021313.2^PAP was biotinylated for subsequent immobilization on streptavidin beads and identification of drug-interacting proteins via immunoblots. […] Also in this setup, covalently saturating the CDK12/13 binding site with THZ-531 competed with IC021313.2^PAP enrichment (FIG. 20 e, f). Collectively, both strategies indicate simultaneous engagement of the destabilized CCNK and the CRL4 adaptor protein DDB1 in a CDK12/13-dependent manner.
# IC021313.2^NH2 was conjugated to a constant side chain consisting of a photosensitive diazirine group and an alkyne handle.
# 20 million KBM7^WT cells per condition were pre-treated with either DMSO or 100 μM THZ531 (competition condition) for 1h in the presence of 10 μM carfilzomib (Selleckchem, S2853) in serum-free IMDM medium (3 ml/20 million cells/10 cm dish). Then, cells were treated with 10 μM IC020772.1^PAP for 1h. […] Eluates were analyzed by WB. Quantification was performed with ImageJ.
# DCAF15 = biological target: T2, DCAF15 (Homo sapiens, UniProt Q66K64); test: DCAF15 stabilization, live-cell HiBit/LgBit bioluminescence screen; assay type: cell-based; conditions: 10 μM, 293T cells expressing HiBit-DCAF15
# T2 construct: expressed in transfected cells; host or cells: 293T cells, DCAF15 knocked out, additionally transduced with LgBit
# T2 sequence (Q66K64 whole entry): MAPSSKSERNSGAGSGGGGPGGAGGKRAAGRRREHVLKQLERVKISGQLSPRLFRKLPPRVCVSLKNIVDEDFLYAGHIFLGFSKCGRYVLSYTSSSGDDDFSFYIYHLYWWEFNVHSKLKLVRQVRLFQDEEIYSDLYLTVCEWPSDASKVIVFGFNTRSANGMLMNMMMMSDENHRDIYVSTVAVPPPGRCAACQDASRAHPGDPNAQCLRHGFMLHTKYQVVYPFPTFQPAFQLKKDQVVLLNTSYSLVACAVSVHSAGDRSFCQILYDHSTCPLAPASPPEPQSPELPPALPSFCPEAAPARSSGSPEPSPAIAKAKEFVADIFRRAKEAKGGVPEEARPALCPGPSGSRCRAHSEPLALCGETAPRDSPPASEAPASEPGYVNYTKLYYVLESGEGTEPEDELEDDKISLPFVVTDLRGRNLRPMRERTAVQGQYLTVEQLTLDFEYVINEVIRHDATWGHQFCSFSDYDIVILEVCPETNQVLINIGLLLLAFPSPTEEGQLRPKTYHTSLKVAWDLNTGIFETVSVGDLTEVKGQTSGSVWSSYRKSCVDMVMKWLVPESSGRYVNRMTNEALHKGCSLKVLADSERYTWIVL
# Text: Subsequently, in this context, the E3 ligase substrate receptor (SR) stabilization approach was employed in order to identify novel chemical matter that can bind and chemically re-program the substrate receptor DCAF15. To be able to screen a collection of around 8000 small-molecules, a cellular system was developed that enabled monitoring of DCAF15 levels in live cells in multi-well format. To that end, DCAF15 was first knocked out in 293T cells via CRISPR/Cas9 technology. Then, DCAF15 was stably expressed as a HiBit® fusion protein in these cells. After further transducing these cells with LgBit, this allowed live-cell tracing of DCAF15 levels in 384 well format by measuring bioluminescence (FIG. 13).
# In brief, cells were seeded at a concentration of 250′000 cells/ml in DMEM+10% FCS+25 mM Hepes. The luciferase substrate Endurazine was added at concentrations recommended by the manufacturer. Small-molecules were added at a concentration of 10 μM, and their effect on DCAF15 levels was assayed by continuous bioluminescent imaging (measurements were taken every 120 minutes). In total, 8000 compounds were tested.
# The known DCAF15 molecular glue indisulam was used as a positive control. In brief, indisulam is known to act as a DCAF15-dependent molecular glue that binds DCAF15 and induced proximity between DCAF15 and RBM39, leading to the degradation of the latter. […]
# UBE2M mutant KBM7 cells = test: cells; assay type: cell-based; conditions: KBM7 UBE2M mutant vs WT
# Experimental: KBM7 cells with the specified genetic backgrounds were grown in IMDM supplemented with 10% FBS and 1% penicillin/streptomycin (pen/strep). AsPC1, HCT116, NCI-H446 and 293T cells were grown in DMEM 10% FBS and 1% pen/strep. MV4; 11, Jurkat and Be (2) C cells were grown in RPMI 10% FBS 1% pen/strep. KBM7, AsPC1 and HCT116 cells expressing Cas9 were generated using the plasmid Lenti_Cas9_Blasti (Addgene #52962). The lentiviral plasmid lentiGuide-Puro (Addgene #52963) was used to express sgRNAs against the genes UBE2M (in KBM7-Cas9, AsPC1-Cas9 and HCT116-Cas9 cells), UBE2G1 (in KBM7-Cas9 cells) and […] (in KBM7-Cas9 cells). The lentiviral plasmid lentiGuide-Puro-IRES-mCherry (modified from Addgene #52963) was used to express sgRNAs against CUL4A (in KBM7-Cas9 cells). The lentiviral plasmid pLenti-PGK-Hygro-DEST-UBE2M was generated by Gateway cloning (empty destination vector Addgene #19066), and used to generate UBE2M^resc KBM7 cells. […]
# Following this observation, it was rationalized that novel small molecule degraders can be identified in an unbiased manner, simply by searching for compounds that lose activity in the absence of UBE2M. 2000 small molecules, mostly of unknown function/target, were tested for their antiproliferative effects in human leukemia cells (KBM7). These cells were either transduced with a control sgRNA (KBM7WT), or with an sgRNA targeting UBE2M, leading to a hypomorph (deletion of six amino acids) with a functional impairment (UBE2Mmut).
# Finally, a total of structurally similar analogs was tested to unravel structure-activity relationship of the identified molecules. To that end, their anti-cancer activity was assayed in WT cells, as well as KBM7 cells deficient in genes identified in the genome-wide CRISPR screens (UBE2M, CUL4B, UBE2G1). Moreover, the compounds were also tested in AsPC1 pancreatic cancer cells (WT or UBE2Mmut), MV4; 11 and Jurkat leukemia cells, Be (2) C neuroblastoma cells, and NCI-H446 lung cancer cells (Table 3 at the end of this document)
# KBM7^WT, mutant KBM7 clones (UBE2M^mut, UBE2M^resc, UBE2G1^mut CUL4A^mut, CUL4B^mut), and 3-day doxycycline pretreated KBM7^iCas9_sgDDB1 cells were seeded at a cell density of 50,000 cells/mL in 96-well plates with DMSO or drug, in triplicates. Drugs used: IC020772.1/IC020772.1X, IC021313.2/IC021313.2X, T6938051/T6938051X or THZ531. Cells were treated for 3 days, after which cell viability was assessed according to manufacturer's protocol (CellTiter Glo, Promega G7570). Survival curves and EC50 values were calculated by best-fit analysis of the log 10 drug concentration to fold change of drug-treated cells over DMSO-treated cells. All survival assays included technical triplicates per sample, per experiment.
# RBM39 = biological target: T3, RBM39 (Homo sapiens, UniProt Q14498+Q66K64); test: RBM39 levels by Western blot, WT vs DCAF15-deficient cells; assay type: cell-based; conditions: KBM7 12 or 16 h (dCeMM-1); 293T 10 h (dCeMM-2)
# T3 construct: endogenous in cells; host or cells: KBM7 (WT or DCAF15 knockout) and 293T (DCAF15-HiBit or knockout)
# T3 sequence (Q14498 2-530 limits assumed): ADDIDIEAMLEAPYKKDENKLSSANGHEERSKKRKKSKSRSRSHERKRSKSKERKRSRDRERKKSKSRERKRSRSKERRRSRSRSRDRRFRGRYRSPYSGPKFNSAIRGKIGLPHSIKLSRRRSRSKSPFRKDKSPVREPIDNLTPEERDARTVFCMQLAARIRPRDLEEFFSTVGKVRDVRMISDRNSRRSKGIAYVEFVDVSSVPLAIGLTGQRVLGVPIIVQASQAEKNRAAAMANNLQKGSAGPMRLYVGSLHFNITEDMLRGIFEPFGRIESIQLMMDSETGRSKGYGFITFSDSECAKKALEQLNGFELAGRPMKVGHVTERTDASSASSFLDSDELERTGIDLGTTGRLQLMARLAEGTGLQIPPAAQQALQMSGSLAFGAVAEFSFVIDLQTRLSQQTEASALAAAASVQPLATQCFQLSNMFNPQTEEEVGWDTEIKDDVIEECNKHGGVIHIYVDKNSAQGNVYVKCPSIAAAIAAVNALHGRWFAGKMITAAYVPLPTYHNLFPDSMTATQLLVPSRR
# T3 sequence (Q66K64 whole entry): as the sequence (Q66K64 whole entry) above
# T3 sequence (Q16531 2-1140 partner limits assumed): as the sequence (Q16531 2-1140 limits assumed) above
# Experimental: The known DCAF15 molecular glue indisulam was used as a positive control. In brief, indisulam is known to act as a DCAF15-dependent molecular glue that binds DCAF15 and induced proximity between DCAF15 and RBM39, leading to the degradation of the latter. […] Given the structural similarity to indisulam, it was assayed if the two new test compounds would similarly lead to the degradation of RBM39 in a DCAF15-dependent manner. Towards that end, their effect on RBM39 levels in wildype cells as well as cells deficient for DCAF15 levels was tested. KBM7 (WT or knockout, FIG. 15) as well as 293T cells (DCAF15-HiBit overexpression vs knockout, see FIG. 16) were tested in various conditions of dCEMM.1 and/or dCEMM.2, comparing their effect to indisulam.
# PBS-washed cell pellets were lysed in 50 mM Tris pH 7.9, 8M Urea and 1% CHAPS and incubated with shaking at 4° C. for at least 30 min. 20 μg of supernatants were run and transferred for detection. […]
# [2] = tested on: KBM7 cells (DCAF15 knockout); test: Cell viability, KBM7 DCAF15 knockout vs WT (72 hour treatment); assay type: cell-based, human
# Experimental: FIG. 18. (A) Cellular viability of KBM7 cells (WT or UBE2M mutant) after treatment with dCeMM.1. (72 hour treatment) (B) cellular viability of KBM7 cells (WT or DCAF15 knockout) after dose-ranging treatment with dCeMM.1 (72 hour treatment).
# In another experiment, 2000 compounds were screened in a set up comparing their anti-proliferative effect in KBM7 cells modified in the UBE2M gene to wildtype KBM7 cells (FIG. 3). The PROTAC® ARV-771 was taken as positive control. Of note, among the identified hits was also dCeMM.1, which was similarly identified via the aforementioned DCAF15 restabilization assay.
# CCNK and DDB1 [3] = biological target: T1, CCNK and DDB1; test: Drug affinity chromatography with IC021313.2^NH2-coupled beads in KBM7 lysates; assay type: binding; conditions: KBM7 whole cell lysates; competed by THZ531 100 μM
# Text: Regarding the first strategy, a variant of IC021313.2 associated with a free amine and named IC021313.2^NH2 allowed immobilizing IC021313.2^NH2 on sepharose beads, and purification of interacting proteins out of whole cell lysates (FIG. 20 a, b). […] Treating lysates with THZ531 and thus covalently blocking the active sites on CDK12/13 prevented DDB1 and CCNK enrichment via the IC021313.2^NH2 resin. This is in line with the fact that cellular co-treatment with THZ531 was able to abrogate drug-induced CCNK degradation (FIG. 19 d).
# 100 μL NHS-Activated Sepharose 4 Fast Flow (GE Life Sciences, 17090601) per condition were washed with 500 μL DMSO 3 times (3 min 800 rpm centrifugation at RT). Beads were resuspended in 50 μL DMSO and 2.5 μL IC021313.2^NH2 10 mM and 0.75 μL TEA (Sigma-Aldrich, T0886) were added. […]
# 200 million KBM7 cells were resuspended in 2 mL lysis buffer ([…] pH 7.5, 0.2% NP-40, 5% glycerol, 1.5 mM MgCl2, 100 mM NaCl, 1 mM EDTA) supplemented with protease inhibitors (Thermo Scientific, 78437) and benzonase (Merck, US170746-370746) and incubated on ice for 30 min. After centrifugation (full-speed, 4° C., 30 min) supernatant was transferred to a new tube and extracted protein measured with BCA (Fisher Scientific, 23225). […]
smiles,measurement,setting,value
C#CCCC1(CCC(=O)Nc2ccc3[nH]c(SCC(=O)Nc4ccc(Cl)cn4)nc3c2)N=N1 [IC021313.2^PAP],proteins enriched in photo-affinity pulldown (immunoblot),CCNK and DDB1 [1],DDB1 and CCNK were enriched in the eluates
Cc1ccc(S(=O)(=O)N/N=C/c2cc(Br)ccc2O)cc1 [dCeMM.1],DCAF15 stabilization (relative luciferase signal over time),DCAF15,significant DCAF15 stabilization
same,anti-proliferative effect upon mutation of UBE2M,UBE2M mutant KBM7 cells,loses anti-proliferative activity
same,"RBM39 destabilization (Western blot), DCAF15-dependent",RBM39,significant destabilization of RBM39 levels
same,sensitivity upon inactivation of DCAF15,[2],pronounced resistance
Nc1ccc2[nH]c(SCC(=O)Nc3ccc(Cl)cn3)nc2c1 [IC021313.2^NH2],interacting proteins in bead pulldown (immunoblot),CCNK and DDB1 [3],both CCNK and DDB1 as interacting proteins
